Here are results for 1 compound from publication PMC7969932, “Population pharmacokinetics and dose optimization of vancomycin in neonates” (Scientific Reports, 2021).

For data set [1] the following is noted: cited from earlier work.
From the text: (§1) There are numerous approaches to determining the adequate dosage regimen of vancomycin in neonates. To reflect PD and PK, area-under-the-curve concentrations versus time to the minimum inhibitory concentrations (AUC: MIC) can be used.
Data set [2] can be described thus: Population pharmacokinetic modeling of vancomycin (NONMEM, one-compartment, first-order elimination; bootstrap, pc-VPC).
Method: For the analysis of vancomycin population pharmacokinetic parameters, nonlinear mixed-effect modeling was performed using NONMEM ver. 7.3 (Icon Development Solutions, Ellicott City, MD, USA) in conjunction with Perl Speaks NONMEM (PsN ver. 4.4.0), Pirana (ver. 2.9.7), and Xpose (ver. 4.0) contained in the R software package (ver. 3.5.0; http://www.r-project.org). The population analysis was conducted using the first-order conditional estimation method (FOCE) with ε–η interaction (FOCE INTER). One- and two-compartment models with first-order elimination were evaluated as potential structural pharmacokinetic models. The fixed-effect parameters were total clearance (CL) and volume of distribution (V) for the one-compartment model, and total CL, central V (V1), peripheral V (V2), and inter-compartmental CL (Q) for the two-compartment model. Possible correlations among the interindividual variability for pharmacokinetic parameters in the model were assessed by the OMEGA BLOCK functionality. Allometric scaling was applied to CL and isometric scaling was applied to V to standardize the pharmacokinetic parameters. The final allometric model was as follows: 3 CL=θCL×(WTi/70)^0.75 4 V=θV×(WTi/70)^1 where CL is the clearance in the ith individual with body weight WTi; θCL is the typical CL value in a standardized adult (70 kg); and θv is the typical V in a standardized adult (70 kg). Interindividual variability in the PK parameters was analyzed using exponential and power models. Covariance between interindividual variability was estimated using a variance–covariance matrix. Residual variability was attempted using additive, proportional, and combined models.
Covariates were investigated for the population modeling using linear, proportional, power, and exponential functions. […] When objective function value was decreased by at least 3.84 (χ^2-test, P < 0.05) from the structural model during the forward selection, the covariate was included in the model. All covariates that met the criteria were added to develop the full model. Then, during backward elimination, any covariate with an increase of at least 6.64 (χ^2-test, P < 0.01) was kept in the model. The categorical covariates tested were as follows: sex (where female = 1, male = 0), and types of delivery (where NsvD = 0, Csec = 1). The continuous covariates tested were body weight, blood urea nitrogen, SCr, protein, albumin, neutrophil, AST, ALT, CRP, WBC, height, PMA, PNA, CLcr, and gestational age.
Model validation was performed via three methods: graphical diagnostics using a goodness-of-fit plot, bootstrapping, and a pc-VPC. Individual observed vs. individual-predicted values and conditional weighted residual vs. time or population-predicted values or individual-predicted values were plotted using R for NONMEM. Bootstrap datasets were repeated 1,000 times using the final model; the pc-VPC was performed as a diagnostic plot.
The conditions of data set [3]: Css,trough 15–20 μg/mL, neonates; cited from earlier work.
From the text: as §1
Setting [4] is: 1000 resampled data sets (993 successful), per 70 kg.

Turning to `CN[C@H](CC(C)C)C(=O)N[C@H]1C(=O)N[C@@H](CC(N)=O)C(=O)N[C@H]2C(=O)N[C@H]3C(=O)N[C@H](C(=O)N[C@H](C(=O)O)c4cc(O)cc(O)c4-c4cc3ccc4O)[C@H](O)c3ccc(c(Cl)c3)Oc3cc2cc(c3O[C@@H]2O[C@H](CO)[C@@H](O)[C@H](O)[C@H]2O[C@H]2C[C@](C)(N)[C@H](O)[C@H](C)O2)Oc2ccc(cc2Cl)[C@H]1O` [vancomycin], in data set [1], the “Css,trough that could satisfy AUC0-24/MIC ≥ 400 with less toxicity” value was 5 to 15 µg/mL and the “Trough concentrations that can achieve AUC0-24/MIC ≥ 400” value is “around 10 mg/L”. Further, in data set [2] (setting [4]), the “θ1, typical value of clearance, Bootstrap median (95% CI)” value is given as 2.07 (1.94, 2.21) L/h and the “θ4, typical value of volume of distribution, Bootstrap median (95% CI)” value is 45.7 (41.6, 50.6) L. For the same compound, in data set [2] (final model), the “θ2, power of PMA/31.7 on clearance, Estimate (%RSE)” value is 0.795 (26%) and the “θ3, power of CLcr/50.3 on clearance, Estimate (%RSE)” value is reported as 0.741 (6%). In data set [2] (standardized to 70 kg (power 1), final model), the “θ4, typical value of volume of distribution (TVV), Estimate (%RSE)” value was 45.6 (5%) L. Besides, in data set [3], the Nephrotoxicity result is “higher nephrotoxicity”.
